Source: paper PMC7213978, “The dynamic interplay of host and viral enzymes in type III CRISPR-mediated cyclic nucleotide signalling” (eLife, 2020)
pKd: −log10 of the molar value.

Biological target: T1, AcrIII-1 (SIRV1 gp29) (Sulfolobus islandicus rod-shaped virus 1, UniProt Q8QL27, H47A)
T1 construct: gene 114
Test: biochemical

T1 sequence (Q8QL27 whole entry H47A): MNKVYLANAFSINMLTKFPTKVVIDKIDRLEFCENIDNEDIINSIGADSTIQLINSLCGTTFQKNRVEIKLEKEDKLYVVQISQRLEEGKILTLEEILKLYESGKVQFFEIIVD

Nc1ncnc2c1ncn2[C@@H]1O[C@@H]2COP(=O)(O)O[C@H]3[C@@H](O)[C@H](n4cnc5c(N)ncnc54)O[C@@H]3COP(=O)(O)O[C@H]3[C@@H](O)[C@H](n4cnc5c(N)ncnc54)O[C@@H]3COP(=O)(O)O[C@H]3[C@@H](O)[C@H](n4cnc5c(N)ncnc54)O[C@@H]3COP(=O)(O)O[C@H]2[C@H]1O [cA4, cyclic tetra-adenylate] was tested. Which pKd did it give?
The pKd was ~7.60.
